Reference: ChEMBL document CHEMBL5126578, “Organocatalyzed umpolung addition for synthesis of heterocyclic-fused arylidene-imidazolones as anticancer agents” (Bioorg Med Chem, 2022)
Calls of active or inactive are those of the source. No cut-off for these calls is given here.

Assays:
MCF7 [1] = experiment: Antiproliferative activity against human MCF7 cells assessed as reduction in cell viability incubated for 48 hrs by MTT assay; assay type: functional, cell-based; settings: MCF7, 48 h
[2] = Antiproliferative activity against VEGF-stimulated human Endothelial cells pre-incubated for 2 hrs followed by stimulation with human VEGF, bFGF and FBS for 18 hrs and measured after 28 hrs by AlamarBlue assay; assay type: functional, cell-based; settings: Endothelial cell
MDA-MB-231 [3] = experiment: Antiproliferative activity against human MDA-MB-231 cells for 48 hrs by MTT assay; assay type: functional, cell-based; settings: MDA-MB-231, 48 h
HEK-293T = experiment: Antiproliferative activity against human HEK293T cells assessed as reduction in cell viability for 48 hrs by MTT assay; assay type: functional, cell-based
[4] = Antiproliferative activity against human H357 cells assessed as reduction in cell viability for 48 hrs by MTT assay; assay type: functional, cell-based; settings: H357, 48 h
MCF7 [5] = experiment: Inhibition of human DNA topoisomerase activity in human MCF cells nuclear lysate assessed mediated supercoiled plasmid DNA relaxation by analyzing migration of supercoiled DNA at 0.5 uM by agarose gel electrophoresis; assay type: subcellular
[6] = Cytotoxicity against human MCF-10A cells assessed as reduction in cell viability for 48 hrs by MTT assay; assay type: toxicity, cell-based
MCF7 [7] = experiment: Induction of apoptosis in human MCF7 cells assessed as increase in number of apoptotic nuclei at 4.2 to 5.5 uM for 48 hrs by DAPI staining based fluorescence microscopy; assay type: functional, cell-based; settings: dose 4.2-5.5 µM
MDA-MB-231 [8] = experiment: Antiproliferative activity against human MDA-MB-231 cells assessed as reduction in cell viability for 48 hrs by MTT assay; assay type: functional, cell-based; settings: MDA-MB-231, 48 h
MCF7 [9] = experiment: Induction of apoptosis in human MCF7 cells assessed as fold change as decrease in BCL-XL protein expression level at 4.2 uM by Western blot analysis; assay type: functional
MCF7 [10] = experiment: Induction of apoptosis in human MCF7 cells assessed as fold change as increase in Bax protein expression level at 4.2 uM by Western blot analysis; assay type: functional
MCF7 [11] = experiment: Induction of cell cycle arrest in human MCF7 cells assessed as accumulation at S phase at 4.2 uM for 48 hrs by PI staining based flow cytometry(Rvb= 4.6%); assay type: functional
MCF7 [12] = experiment: Induction of cell cycle arrest in human MCF7 cells assessed as accumulation at G2/M phase at 4.2 uM for 48 hrs by PI staining based flow cytometry (Rvb= 21.4%); assay type: functional
MCF7 [13] = experiment: Induction of cell cycle arrest in human MCF7 cells assessed as accumulation at G1 phase at 4.2 uM for 48 hrs by PI staining based flow cytometry (Rvb= 73.1%); assay type: functional
MCF7 [14] = experiment: Induction of apoptosis in human MCF7 cells assessed as fold change as increase in Bax protein expression level at 5.5 uM by Western blot analysis; assay type: functional
MCF7 [15] = experiment: Induction of cell cycle arrest in human MCF7 cells assessed as accumulation at Sub-G1 phase at 4.2 uM for 48 hrs by PI staining based flow cytometry (Rvb= 0.9%); assay type: functional
MCF7 [16] = experiment: Inhibition of human DNA topoisomerase activity in human MCF cells nuclear lysate assessed mediated supercoiled plasmid DNA relaxation by analyzing migration of supercoiled DNA at 0.9 uM by agarose gel electrophoresis; assay type: subcellular
MCF7 [17] = experiment: Induction of apoptosis in human MCF7 cells assessed as upregulation of Caspase-3 expression level at 4.2 to 5.5 uM by TRIT-C staining based fluorescence microscopy; assay type: functional, cell-based; settings: dose 4.2-5.5 µM
MCF7 [18] = experiment: Induction of apoptosis in human MCF7 cells assessed as fold change as decrease in BCL-XL protein expression level at 5.5 uM by Western blot analysis; assay type: functional
[19] = biological target: Epidermal growth factor receptor (Homo sapiens, UniProt P00533); experiment: Inhibition of EGFR (unknown origin) assessed as kinase activity by measuring ATP remaining for 40 mins in presence of ATP by Kinase-Glo Plus luminescence kinase assay
HeLa = experiment: Antiproliferative activity against human HeLa cells for 24 hrs by MTT assay; assay type: functional, cell-based
MCF7 [20] = experiment: Induction of apoptosis in human MCF7 cells assessed as fold change as increase in Bax protein expression level at 5 uM by Western blot analysis; assay type: functional
MCF7 [21] = experiment: Induction of apoptosis in human MCF7 cells assessed as increase in number of apoptotic nuclei at 3.8 to 5 uM for 48 hrs by DAPI staining based fluorescence microscopy; assay type: functional, cell-based; settings: dose 3.8-5 µM
MCF7 [22] = experiment: Induction of cell cycle arrest in human MCF7 cells assessed as accumulation at Sub-G1 phase at 3.8 uM for 48 hrs by PI staining based flow cytometry (Rvb= 0.9%); assay type: functional
MCF7 [23] = experiment: Induction of apoptosis in human MCF7 cells assessed as fold change as decrease in BCL-XL protein expression level at 5 uM by Western blot analysis; assay type: functional
MCF7 [24] = experiment: Induction of cell cycle arrest in human MCF7 cells assessed as accumulation at S phase at 3.8 uM for 48 hrs by PI staining based flow cytometry (Rvb=4.6%); assay type: functional
MCF7 [25] = experiment: Induction of cell cycle arrest in human MCF7 cells assessed as accumulation at G2/M phase at 3.8 uM for 48 hrs by PI staining based flow cytometry (Rvb= 21.4%); assay type: functional
MCF7 [26] = experiment: Induction of apoptosis in human MCF7 cells assessed as upregulation of Caspase-3 expression level at 3.8 to 5 uM by TRIT-C staining based fluorescence microscopy; assay type: functional, cell-based; settings: dose 3.8-5 µM
MCF7 [27] = experiment: Induction of apoptosis in human MCF7 cells assessed as fold change as increase in Bax protein expression level at 3.8 uM by Western blot analysis; assay type: functional
MCF7 [28] = experiment: Induction of apoptosis in human MCF7 cells assessed as fold change as decrease in BCL-XL protein expression level at 3.8 uM by Western blot analysis; assay type: functional
MCF7 [29] = experiment: Inhibition of human DNA topoisomerase activity in human MCF cells nuclear lysate assessed mediated supercoiled plasmid DNA relaxation by analyzing migration of supercoiled DNA at 1 uM by agarose gel electrophoresis; assay type: subcellular
MCF7 [30] = experiment: Induction of cell cycle arrest in human MCF7 cells assessed as accumulation at G1 phase at 3.8 uM for 48 hrs by PI staining based flow cytometry (Rvb= 73.1%); assay type: functional

Epidermal growth factor receptor, sequence (P00533 whole entry): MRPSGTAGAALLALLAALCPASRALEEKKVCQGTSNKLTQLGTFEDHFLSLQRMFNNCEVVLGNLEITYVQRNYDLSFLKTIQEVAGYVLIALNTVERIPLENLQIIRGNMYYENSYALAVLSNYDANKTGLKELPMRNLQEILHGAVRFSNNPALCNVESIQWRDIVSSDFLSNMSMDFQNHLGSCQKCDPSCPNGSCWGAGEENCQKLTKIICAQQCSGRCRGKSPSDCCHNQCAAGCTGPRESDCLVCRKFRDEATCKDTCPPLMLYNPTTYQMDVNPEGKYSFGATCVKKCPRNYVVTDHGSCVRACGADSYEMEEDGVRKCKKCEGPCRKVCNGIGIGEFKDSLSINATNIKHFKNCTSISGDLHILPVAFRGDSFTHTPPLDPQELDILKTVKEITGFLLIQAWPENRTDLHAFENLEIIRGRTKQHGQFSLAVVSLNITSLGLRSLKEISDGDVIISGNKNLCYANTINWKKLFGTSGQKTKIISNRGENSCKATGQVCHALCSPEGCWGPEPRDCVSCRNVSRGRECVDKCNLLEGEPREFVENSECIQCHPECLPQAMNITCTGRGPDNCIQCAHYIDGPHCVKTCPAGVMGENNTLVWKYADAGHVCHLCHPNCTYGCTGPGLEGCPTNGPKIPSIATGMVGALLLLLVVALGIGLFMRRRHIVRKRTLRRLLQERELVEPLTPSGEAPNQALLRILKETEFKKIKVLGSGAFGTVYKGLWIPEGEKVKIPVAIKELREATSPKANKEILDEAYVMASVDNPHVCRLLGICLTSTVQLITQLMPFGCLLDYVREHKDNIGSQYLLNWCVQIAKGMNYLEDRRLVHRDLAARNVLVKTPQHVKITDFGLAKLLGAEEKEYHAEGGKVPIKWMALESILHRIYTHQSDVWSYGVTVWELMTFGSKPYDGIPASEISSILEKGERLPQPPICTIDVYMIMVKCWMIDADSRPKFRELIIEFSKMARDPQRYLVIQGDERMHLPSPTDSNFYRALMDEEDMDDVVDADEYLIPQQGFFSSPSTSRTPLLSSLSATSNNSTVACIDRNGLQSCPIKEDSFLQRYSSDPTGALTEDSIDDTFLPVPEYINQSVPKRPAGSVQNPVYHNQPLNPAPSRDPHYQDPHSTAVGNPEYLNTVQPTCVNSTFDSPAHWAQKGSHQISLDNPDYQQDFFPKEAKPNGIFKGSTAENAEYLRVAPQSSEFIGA

`O=C1/C(=C/c2ccccc2)N=C2N=CC=CN12` showed an IC50 (MCF7 [1]) of 9.9 µM.

Work on `COC1=CC(OC)=NC2=N/C(=C\c3ccccc3)C(=O)N12` yielded an IC50 (MCF7 [1]) of 9.7 µM.

With `O=C1/C(=C/c2ccccc2)N=C2C=C(O)C=CN12` the IC50 (MCF7 [1]) was 9.2 µM.

`COc1ccc(/C=C2\N=C3C(O)=CC=CN3C2=O)cc1` showed an IC50 (MCF7 [1]) of 10 µM.

`CCN(CC)CCOc1cccc(-c2cn3c(n2)sc2ccccc23)c1` gave an IC50 [2] of 0.0039 µM.

`COc1ccc2c(c1)sc1nc(/C=C/C(=O)c3ccc(OC)c(O)c3)cn12` showed an IC50 (MDA-MB-231 [3]) of 1.2 µM.

Compound `O=C1/C(=C/c2ccccc2)N=C2C=CC([N+](=O)[O-])=CN12` has an IC50 (MCF7 [1]) of 9 µM.

For `COC1=CC2=N/C(=C\c3ccccc3)C(=O)N2C=C1`, the IC50 (MCF7 [1]) was 9.9 µM.

`COc1cccc2c1N1C(=O)/C(=C/c3ccccc3)N=C1S2` gave an IC50 (MCF7 [1]) of 4.5 µM.

In the case of `COc1cc([C@@H]2c3cc4c(cc3[C@@H](O[C@@H]3O[C@@H]5CO[C@@H](C)O[C@H]5[C@H](O)[C@H]3O)[C@H]3COC(=O)[C@H]23)OCO4)cc(OC)c1O` [ETOPOSIDE], the IC50 (HEK-293T) is reported as 28 µM, the IC50 [4] is reported as 32 µM and the inhibition (MCF7 [5]) is reported as “Active”. It also gave an IC50 at 48 h [6] of 102 µM.

In the case of `Cc1cccc2c1N1C(=O)/C(=C/c3ccccc3)N=C1S2`, the IC50 (MCF7 [1]) is reported as 9.8 µM.

In the case of `COC1=CC2=N/C(=C\c3ccc(OC)cc3)C(=O)N2C=C1`, the IC50 (MCF7 [1]) is reported as 9.8 µM.

With `O=C1/C(=C/c2ccc(Cl)cc2)N=C2C(O)=CC=CN12` the IC50 (MCF7 [1]) was 5.2 µM.

For `COc1ccc(/C=C2\N=C3Sc4cccc(O)c4N3C2=O)cc1`, the IC50 (MCF7 [1]) was 7.5 µM.

In the case of `COc1ccc2c(c1)SC1=N/C(=C\c3ccccc3)C(=O)N12`, the IC50 (MCF7 [1]) is reported as 10 µM.

With `COC1=CC2=N/C(=C\c3cc(OC)c(OC)c(OC)c3)C(=O)N2C=C1` the IC50 (MCF7 [1]) was 10 µM.

In the case of `COc1ccc(/C=C2\N=C3Sc4cccc(OC)c4N3C2=O)cc1`, the IC50 (MCF7 [1]) is reported as 7.8 µM.

For `CCOC(=O)Oc1c(OC)cc(/C=C2\N=C3C=C(OC)C=CN3C2=O)cc1OC`, the IC50 (MCF7 [1]) was 8.9 µM.

For `CC1=CC=CN2C(=O)/C(=C/c3ccccc3)N=C12`, the IC50 (MCF7 [1]) was 9.8 µM.

`O=C1/C(=C/c2ccccc2)N=C2Sc3cc(Br)ccc3N12` showed an IC50 (MCF7 [1]) of 9.7 µM.

Work on `O=C1/C(=C/c2ccccc2)N=C2C(Br)=CC(Br)=CN12` yielded an IC50 (MCF7 [1]) of 10 µM.

For `O=C1/C(=C/c2ccccc2)N=C2C([N+](=O)[O-])=CC(Br)=CN12`, the IC50 (MCF7 [1]) was 10 µM.

With `O=C1/C(=C/c2ccc(Cl)cc2)N=C2Sc3cccc(O)c3N12` the Activity (MCF7 [7]) was “Active”, the IC50 (MDA-MB-231 [8]) was 5.4 µM and the IC50 (HEK-293T) was 5.8 µM. For the same compound, the “fold change (FC)” value (MCF7 [9]) was 2.5, the “fold change (FC)” value (MCF7 [10]) was 3.5 and the Activity (MCF7 [11]) was 24.8%. The Activity (MCF7 [12]) was 9.6%, the Activity (MCF7 [13]) was 61.3% and the “fold change (FC)” value (MCF7 [14]) was 6. For the same compound, the IC50 (MCF7 [1]) was 4.2 µM, the Activity (MCF7 [15]) was 4.3% and the inhibition (MCF7 [16]) was “Active”. The IC50 [4] was 5 µM, the IC50 at 48 h [6] was 40 µM and the Activity (MCF7 [17]) was “Active”. For the same compound, the “fold change (FC)” value (MCF7 [18]) was 10.

Work on `O=C(Cc1csc2nc3ccccc3n12)Nc1cccc2ccccc12` yielded an IC50 [19] of 55 µM and an IC50 (HeLa) of 0.42 µM.

`O=C(Cc1csc2nc3ccccc3n12)Nc1cccc(O)c1` gave an IC50 [19] of 55 µM and an IC50 (HeLa) of 0.42 µM.

`O=C1/C(=C/c2ccccc2)N=C2Sc3ccccc3N12` showed an IC50 (MCF7 [1]) of 9.4 µM.

For `CC1=CN2C(=O)/C(=C/c3ccccc3)N=C2C=C1`, the IC50 (MCF7 [1]) was 10 µM.

Work on `O=C1/C(=C/c2ccccc2)N=C2C(O)=CC=CN12` yielded an IC50 (MCF7 [1]) of 9.7 µM.

In the case of `O=C1/C(=C/c2ccccc2)N=C2C=CC=CN12`, the IC50 (MCF7 [1]) is reported as 9.8 µM.

In the case of `O=C1/C(=C/c2ccccc2)N=C2Sc3cccc(O)c3N12`, the “fold change (FC)” value (MCF7 [20]) is reported as 5, the IC50 (MDA-MB-231 [8]) is reported as 4 µM and the Activity (MCF7 [21]) is reported as “Active”. For the same compound, the IC50 (HEK-293T) was 4.2 µM, the Activity (MCF7 [22]) was 8.9% and the “fold change (FC)” value (MCF7 [23]) was 10. The Activity (MCF7 [24]) was 36.4%, the Activity (MCF7 [25]) was 17.2% and the Activity (MCF7 [26]) was “Active”. The “fold change (FC)” value (MCF7 [27]) was 2, the “fold change (FC)” value (MCF7 [28]) was 2 and the IC50 (MCF7 [1]) was 3.8 µM. For the same compound, the IC50 [4] was 4.8 µM, the IC50 at 48 h [6] was 35 µM and the inhibition (MCF7 [29]) was “Active”. It also gave an Activity (MCF7 [30]) of 37.5%.
